This is an account of results in BindingDB's records for doi:10.1111/j.1527-3458.2004.tb00024.x (Karolinska Institutet, 2004).

As usually defined, the pKi is the negative decadic logarithm of the Ki, by convention in mol/L. Lower therefore signals a large Ki.

The experiment deals with T1, D1 dopamine receptor (Macaca fascicularis, UniProt Q5I6B7).
T1 sequence (Q5I6B7 whole entry): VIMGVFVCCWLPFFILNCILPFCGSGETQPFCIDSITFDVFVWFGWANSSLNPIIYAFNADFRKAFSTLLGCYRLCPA

pKi: −log10 of the molar value.

Take `Oc1cc2c(cc1O)C1c3ccccc3CNC1CC2` (stereo unspecified) [Dihydrexidine, DHX]: the pKi was 7.69.
